Consider two molecules from US20190388364A1, “[…] A LOCAL […]” (GRÜNENTHAL GMBH, priority 2017, published 2019).

For this assay, the system named is guinea pig skin twitch response. The assay can be described thus: guinea pig skin test (skin twitch response, local anesthetic effect). Type of assay: in vivo. To be noted: for Stimuli per twitch response (means ± s.e.m.): max 20 stimuli; for number of animals with abrogated twitch response (max. effect): no twitch response after 20 stimuli. The procedure: The local anesthetic effects of Tapentadol were studied in a guinea pig skin test.
Animals: Male Pirbright White guinea pigs from a commercial breeder (ca. 400 g body weights) were used for the study. The animals were housed under standard conditions: room temperature […], rel. air changes per hour, air movement <0.2 m/sec, light/dark rhythm (06.00-18.00 h light, 18.00-06.00 h dark). The animals had access to water ad libitum and to an exclusive diet of “Herilan RM 204” (Eggersmann Company, Rinteln/Germany). Before the experiment they lived in groups of 5-8 animals in type IV Makrolone cages (Ebeco Company, Castrop-Rauxel/Germany). There were at least five days between delivery of the animals and the test day.
Tapentadol (test compound was) dissolved in 0.9% NaCl solution. Application route: intradermal application. Application volume: 0.1 ml per application site. Concentrations: 0.05/0.01/0.3/0.5%.
Application route: intradermal application. Application volume: 0.1 ml per application site. Concentrations: 0.1/0.3/1.0.
The experiments were performed according to a modified method originally described by Bülbring and Wajda (J Pharm Exp Ther 85: 78-84, 1945). After erasure of the back of the animals 0.1 ml of solutions of the test compounds or of vehicle (0.9% NaCl) were injected intradermally. There were 3 injection sites each on both flanks of the back with a craniocaudal distance between them of 1.5 cm. A twitch response of the skin musculature was provoked by contact of these sites with the tip of an injection cannula. The number of the stimuli needed to provoke a twitch response was registered. A maximum of 20 stimuli per site was allowed. […] Thereafter, solution with different concentrations of the test compounds or vehicle were injected and the skin sensitivity was evaluated at 2, 5, 10, 15 and 20 min. The different test solutions were injected on both flanks of the back into the cranial, intermediate or caudal test site in a randomized order.
Test parameter: Stimuli per twitch response.
Each concentration of the test compounds was tested at 6-7 sites. The means±s.e.m. of stimuli that were necessary to induce a twitch response were calculated for the different times after application. In addition, number of tests with a complete abolition of skin sensitivity (i.e., no twitch response after 20 stimuli) was used to calculate an EC50-value (with 95% confidence limits) according to Litchfield and Wilcoxon.

[1] abbreviates: 0.1 wt.-% intradermal, 2 min after application.
[2] abbreviates: 0.1 wt.-% intradermal, 5 min after application.
Setting [3] is: 0.1 wt.-% intradermal, 10 min after application.
Where [4] appears, read: 0.1 wt.-% intradermal, 15 min after application.
Where [5] appears, read: 0.1 wt.-% intradermal, 20 min after application.
The mark [6] stands for this setting: 0.3 wt.-% intradermal, 2 min after application.
The mark [7] stands for this setting: 0.3 wt.-% intradermal, 5 min after application.
Setting [8] is: 0.3 wt.-% intradermal, 10 min after application.
Setting [9] is: 0.3 wt.-% intradermal, 15 min after application.
[10] abbreviates: 0.3 wt.-% intradermal, 20 min after application.

Consider `CC[C@@H](c1cccc(O)c1)[C@@H](C)CN(C)C` [Tapentadol, (1R,2R)-3-(3-dimethylamino-1-ethyl-2-methyl-propyl)-phenol], for which the “Stimuli per twitch response (means ± s.e.m.)” value (“Stimuli per twitch response” below) stood at 6 ± 3 (0.05 wt.-% intradermal, 0.1 ml per site, 2 min after application); 1 (0.05 wt.-% intradermal, 5 min after application); 1 (0.05 wt.-% intradermal, 10 min after application); 1 (0.05 wt.-% intradermal, 15 min after application); 1 (0.05 wt.-% intradermal, 20 min after application); 12 ± 4 under setting [1]. The “Stimuli per twitch response” value is reported as 2 ± 1 under setting [2]; 1 under setting [3]; 1 under setting [4]; 1 under setting [5]; 20 under setting [6]; 20 under setting [7]. Also, the “Stimuli per twitch response” value is, setting by setting: under setting [8], 4 ± 3; under setting [9], 2 ± 1; under setting [10], 1; (0.5 wt.-% intradermal, 2 min after application) 20; (0.5 wt.-% intradermal, 5 min after application) 20; (0.5 wt.-% intradermal, 10 min after application) 10 ± 3. In addition, the “Stimuli per twitch response” value runs as follows: (0.5 wt.-% intradermal, 15 min after application) 3 ± 2; (0.5 wt.-% intradermal, 20 min after application) 1. Further, the “number of animals with abrogated twitch response (max. effect)” value (shortened to “number of animals”) (0.05 wt.-% intradermal) is 1 of 7, the “number of animals” value (0.1 wt.-% intradermal) was 3 of 6, the “number of animals” value (0.3 wt.-% intradermal) is given as 7 of 7 and the “number of animals” value (0.5 wt.-% intradermal) is given as 7 of 7. Further, the “time of maximum effect after application” value (intradermal, 0.05 to 0.5%) is given as 2 min. In addition, the “local anesthetic effect at 20 min after application” value (intradermal, up to the highest concentration (0.5%)) is reported as “completely disappeared”.
Turning to `COc1cccc(C2(O)CCCCC2CN(C)C)c1` (centres unmarked) [Tramadol], the “Stimuli per twitch response” value is, setting by setting: under setting [1], 1; under setting [2], 1; under setting [3], 1; under setting [4], 1; under setting [5], 1; under setting [6], 8 ± 3. The “Stimuli per twitch response” value under setting [7] is 6 ± 3; the “Stimuli per twitch response” value under setting [8] is 3 ± 2; the “Stimuli per twitch response” value under setting [9] was 3 ± 2; the “Stimuli per twitch response” value under setting [10] is given as 3 ± 2; the “Stimuli per twitch response” value (1.0 wt.-% intradermal, 2 min after application) came to 20; the “Stimuli per twitch response” value (1.0 wt.-% intradermal, 5 min after application) amounted to 20. The “Stimuli per twitch response” value (1.0 wt.-% intradermal, 10 min after application) worked out at 20; the “Stimuli per twitch response” value (1.0 wt.-% intradermal, 15 min after application) came to 15 ± 3; the “Stimuli per twitch response” value (1.0 wt.-% intradermal, 20 min after application) turned out to be 14 ± 3.
